Tested on: Bacteria
Test: Bacterial minimum inhibitory concentration
Format: functional

MIC: < 2.4 µM
Structure (SMILES): Cc1c(F)c(N2CCNC(C)C2)cc2c1c(=O)c(C(=O)O)cn2C1CC1 (stereo unspecified) [GREPAFLOXACIN]

From ChEMBL document CHEMBL1145042, “Understanding the structure-activity relationship of the human ether-a-go-go-related gene cardiac K+ channel. A model for bad behavior” (J Med Chem, 2003)
